Results from ChEMBL document CHEMBL1201862, “PubChem BioAssay data set” (2004).
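Dose response: 5 concentrations. Exposure: 48 h. Format: 96-well plates. Endpoint: linear interpolation; highest concentration if not reached. GI50 = concentration required for 50% inhibition of growth.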 The source made the active and inactive calls. Rule as the data show it: active = GI50 up to about 1.1 µM and inactive = higher.

Experiments:
Experiment in all cases: inhibition of tumour cell growth, NCI panel, 48 h
RPMI-8226 = tested on: RPMI-8226
RXF 393 = tested on: RXF 393
HCT-116 = tested on: HCT-116
A549 = tested on: A549
SW-620 = tested on: SW-620
UACC-257 = tested on: UACC-257
SK-MEL-2 = tested on: SK-MEL-2
SK-OV-3 = tested on: SK-OV-3
KM12 = tested on: KM12
K562 = tested on: K562
Malme-3M = tested on: Malme-3M
SN12C = tested on: SN12C
MOLT-4 = tested on: MOLT-4
OVCAR-8 = tested on: OVCAR-8
OVCAR-5 = tested on: OVCAR-5
HT-29 = tested on: HT-29
CCRF-CEM = tested on: CCRF-CEM
EKVX = tested on: EKVX
COLO 205 = tested on: COLO 205
NCI-H460 = tested on: NCI-H460

## N#CC1=C(N)N(c2ccccc2)C(c2ccco2)C1(C#N)C#N (configuration not stated)
RPMI-8226
  GI50: 19.4 µM (inactive)
RXF 393
  GI50: 17.5 µM (inactive)
HCT-116
  GI50: 28.5 µM (inactive)
A549
  GI50: 38.2 µM (inactive)
SW-620
  GI50: 17.9 µM (inactive)
UACC-257
  GI50: 18.4 µM (inactive)
SK-MEL-2
  GI50: 27.5 µM (inactive)
SK-OV-3
  GI50: 77.8 µM (inactive)
KM12
  GI50: 17.4 µM (inactive)
K562
  GI50: 6.58 µM (inactive)
Malme-3M
  GI50: 22.9 µM (inactive)
SN12C
  GI50: 30.3 µM (inactive)
MOLT-4
  GI50: 25.5 µM (inactive)
OVCAR-8
  GI50: 23.3 µM (inactive)
OVCAR-5
  GI50: 22.9 µM (inactive)
HT-29
  GI50: 20 µM (inactive)
CCRF-CEM
  GI50: 14.3 µM (inactive)
EKVX
  GI50: 20 µM (inactive)
COLO 205
  GI50: 19.4 µM (inactive)

## CC(C)(C)OC(=O)NCC(=O)NC1c2ccsc2/C(=N/O)[C@H]1O (some centres not stated)
RXF 393
  GI50: > 100 µM (inactive)
HCT-116
  GI50: > 100 µM (inactive)
A549
  GI50: > 100 µM (inactive)
SW-620
  GI50: > 100 µM (inactive)
UACC-257
  GI50: > 100 µM (inactive)
SK-MEL-2
  GI50: > 100 µM (inactive)
SK-OV-3
  GI50: > 100 µM (inactive)
K562
  GI50: 5.28 µM (inactive)
Malme-3M
  GI50: > 100 µM (inactive)
SN12C
  GI50: > 100 µM (inactive)
MOLT-4
  GI50: > 100 µM (inactive)
OVCAR-8
  GI50: > 100 µM (inactive)
OVCAR-5
  GI50: > 100 µM (inactive)
HT-29
  GI50: > 100 µM (inactive)
CCRF-CEM
  GI50: > 100 µM (inactive)
NCI-H460
  GI50: > 100 µM (inactive)
EKVX
  GI50: > 100 µM (inactive)
COLO 205
  GI50: > 100 µM (inactive)

## Cc1cc2c(C)nn(Cc3ccc(Cl)cc3)c2c(C#N)c1C
RPMI-8226
  GI50: > 100 µM (inactive)
RXF 393
  GI50: 45.9 µM (inactive)
HCT-116
  GI50: > 100 µM (inactive)
A549
  GI50: > 100 µM (inactive)
SW-620
  GI50: > 100 µM (inactive)
UACC-257
  GI50: > 100 µM (inactive)
SK-MEL-2
  GI50: > 100 µM (inactive)
SK-OV-3
  GI50: > 100 µM (inactive)
Malme-3M
  GI50: > 100 µM (inactive)
SN12C
  GI50: > 100 µM (inactive)
MOLT-4
  GI50: > 10 µM (inactive)
OVCAR-8
  GI50: > 100 µM (inactive)
OVCAR-5
  GI50: > 100 µM (inactive)
CCRF-CEM
  GI50: > 100 µM (inactive)
EKVX
  GI50: > 100 µM (inactive)
COLO 205
  GI50: > 100 µM (inactive)

## CSc1nc(N)c2c(-c3ccccc3)c3c(nc2n1)CCCC3
RPMI-8226
  GI50: > 100 µM (inactive)
RXF 393
  GI50: 29.7 µM (inactive)
HCT-116
  GI50: > 100 µM (inactive)
A549
  GI50: > 100 µM (inactive)
SW-620
  GI50: > 100 µM (inactive)
UACC-257
  GI50: > 100 µM (inactive)
SK-OV-3
  GI50: 87.7 µM (inactive)
KM12
  GI50: > 100 µM (inactive)
K562
  GI50: > 100 µM (inactive)
Malme-3M
  GI50: 82 µM (inactive)
SN12C
  GI50: > 100 µM (inactive)
MOLT-4
  GI50: > 100 µM (inactive)
OVCAR-8
  GI50: 20.8 µM (inactive)
OVCAR-5
  GI50: > 100 µM (inactive)
HT-29
  GI50: > 100 µM (inactive)
CCRF-CEM
  GI50: > 100 µM (inactive)
NCI-H460
  GI50: > 100 µM (inactive)
EKVX
  GI50: > 100 µM (inactive)
COLO 205
  GI50: > 100 µM (inactive)

## O=C(NO)c1coc2ccccc2c1=O
RPMI-8226
  GI50: > 100 µM (inactive)
RXF 393
  GI50: 72.9 µM (inactive)
A549
  GI50: > 100 µM (inactive)
SW-620
  GI50: > 100 µM (inactive)
UACC-257
  GI50: > 100 µM (inactive)
SK-MEL-2
  GI50: 74.3 µM (inactive)
SK-OV-3
  GI50: 12.3 µM (inactive)
KM12
  GI50: > 100 µM (inactive)
K562
  GI50: > 100 µM (inactive)
Malme-3M
  GI50: 88.9 µM (inactive)
SN12C
  GI50: > 100 µM (inactive)
MOLT-4
  GI50: > 100 µM (inactive)
OVCAR-8
  GI50: > 100 µM (inactive)
OVCAR-5
  GI50: > 100 µM (inactive)
HT-29
  GI50: > 100 µM (inactive)
CCRF-CEM
  GI50: > 100 µM (inactive)
EKVX
  GI50: > 100 µM (inactive)
COLO 205
  GI50: 39.4 µM (inactive)

## COc1ccc(-c2nnc(-c3ccncc3)o2)cc1
RPMI-8226
  GI50: > 100 µM (inactive)
RXF 393
  GI50: > 100 µM (inactive)
HCT-116
  GI50: > 100 µM (inactive)
A549
  GI50: > 100 µM (inactive)
UACC-257
  GI50: > 100 µM (inactive)
SK-MEL-2
  GI50: > 100 µM (inactive)
SK-OV-3
  GI50: > 100 µM (inactive)
K562
  GI50: > 100 µM (inactive)
Malme-3M
  GI50: > 100 µM (inactive)
SN12C
  GI50: > 100 µM (inactive)
MOLT-4
  GI50: > 100 µM (inactive)
OVCAR-8
  GI50: > 100 µM (inactive)
OVCAR-5
  GI50: > 100 µM (inactive)
HT-29
  GI50: > 100 µM (inactive)
CCRF-CEM
  GI50: > 100 µM (inactive)
EKVX
  GI50: > 100 µM (inactive)
COLO 205
  GI50: > 100 µM (inactive)

## CC(=C/c1ccccc1)/C=C1/NC(=S)N(/C=C2\C(=O)Oc3ccccc3C2=O)C1=O
RPMI-8226
  GI50: 26.6 µM (inactive)
RXF 393
  GI50: 0.0664 µM (active)
HCT-116
  GI50: 41.9 µM (inactive)
A549
  GI50: 42.2 µM (inactive)
UACC-257
  GI50: 66.7 µM (inactive)
SK-MEL-2
  GI50: > 100 µM (inactive)
KM12
  GI50: 27.5 µM (inactive)
K562
  GI50: 39.6 µM (inactive)
SN12C
  GI50: 98.6 µM (inactive)
MOLT-4
  GI50: 38.1 µM (inactive)
OVCAR-8
  GI50: 52.4 µM (inactive)
OVCAR-5
  GI50: > 100 µM (inactive)
CCRF-CEM
  GI50: 33.8 µM (inactive)
NCI-H460
  GI50: 30.5 µM (inactive)
EKVX
  GI50: 27.9 µM (inactive)
COLO 205
  GI50: 36.7 µM (inactive)

## COc1cc([N+](=O)[O-])ccc1NC(=O)c1cccc([N+](=O)[O-])c1O
RPMI-8226
  GI50: 10.3 µM (inactive)
HCT-116
  GI50: 26.4 µM (inactive)
A549
  GI50: 21.8 µM (inactive)
SW-620
  GI50: 30.8 µM (inactive)
UACC-257
  GI50: 17.8 µM (inactive)
SK-MEL-2
  GI50: 17.5 µM (inactive)
SK-OV-3
  GI50: 23.1 µM (inactive)
KM12
  GI50: 29.5 µM (inactive)
K562
  GI50: 20.8 µM (inactive)
Malme-3M
  GI50: 7.67 µM (inactive)
SN12C
  GI50: 14.7 µM (inactive)
MOLT-4
  GI50: 30.9 µM (inactive)
OVCAR-8
  GI50: 29 µM (inactive)
OVCAR-5
  GI50: 41.3 µM (inactive)
HT-29
  GI50: 25.5 µM (inactive)
CCRF-CEM
  GI50: 23.2 µM (inactive)
NCI-H460
  GI50: 27.7 µM (inactive)
EKVX
  GI50: 29.1 µM (inactive)
COLO 205
  GI50: 16 µM (inactive)
